The values that follow are results of earlier work, collected in patent US20200281134A1, “GROWTH SUBSTRATE PRODUCT” (ROCKWOOL International A/S, priority 2015, published 2020).

One may read the pKa as the pH at which an ionisable group is half protonated.

For this data set the following is noted: 3-hydroxy group.

Consider `O=C1O[C@H]([C@@H](O)CO)C(O)=C1O` [ascorbic acid, Ascorbic acid], for which the pKa is given as 4.04.
